Consider one compound from patent publication US20040191842A1, “Chemopreventive and therapeutic aspects of polyphenolic compositions and assays” (Medical College of Georgia Research Institute, Inc., priority 2002, published 2004).

Values joined by “and” are separate entries in the source; they are usually repeats but may differ in a detail not shown here. Equal entries are not always repeated. “Also recorded” adds a separate entry of the source.

For data set [1], the system named is caspase 3. Description: Caspase 3 activity assay, normal human epidermal keratinocytes. To be noted: EGCG 0 to 200 μM or 0.2 mg/ml GTPPs, 24 h. It counts as cell-based. The protocol:
(§1) Caspase 3 activity assay. The Caspase 3 Apoptosis Detection Kit was purchased from Santa Cruz Biotech. Inc. In a 24 well tissue culture plate, 10^5 cells/well of control or treated cells in triplicates were plated. […] To each well, 100 μl of 2×reaction buffer was added with 10 mM DTT. Finally, 5 μl of DEVD-AFC substrate was added to each well containing cell lysates. The reaction mixtures were incubated for 1 hour at 37° C. The caspase 3 activity in each well was measured using a fluorescence plate reader set for 405 nanometer (nm) excitation and 505 nm emission.
Caspase 3 activity assay. The Caspase 3 Apoptosis Detection Kit was purchased from Santa Cruz Biotech. Inc. In a 24 well tissue culture plate, 10^5 cells/well of cells in triplicates were plated. […] To each well, 100 μl of 2×reaction buffer was added with […]. Finally, 5 μl of DEVD-AFC substrate was added to each well containing cell lysates. The reaction mixtures were incubated for 1 hour at 37° C. The caspase 3 activity in each well was measured using a fluorescence microplate reader set for 405 nm excitation and 505 nm emission.
Caspase 3 activity assay. […] The reaction mixtures were incubated for 1 hour at 37° C., and caspase 3 activity in each well was measured using a fluorescence micro-plate reader at a wavelength of 405 nm for excitation and 505 nm for emission.

The subject of data set [2] is p57 (KIP2). The data set is described as follows: Western blot of p57 in SCC25 oral carcinoma cells. It counts as cell-based, human. The following applies: 50 μM EGCG or 0.2 mg/ml GTPPs, 24 h.
Method: Cell treatments. For 24 hours treatments, exponentially growing cells with 40% confluency (to minimize differentiation and spontaneous apoptosis) were either maintained in 50 μM EGCG (2.29 mg/100 ml) or 0.2 mg/ml of GTPPs in tissue culture flasks (25 cm^2). Control flasks contained cells without any treatment. To test whether BaP or NNK interfere with the induction of p57, the human keratinocytes were treated with 0.12 μM BaP, or 10 μM NNK, either alone or in combination with 50 μM EGCG. To examine the time course of p57 induction, cells were treated with 50 μM EGCG and harvested for Western analysis at 30 minutes, 2 hours, 6 hours, and 24 hours. The human keratinocytes were treated when the cell density reached 85-90% confluency (to mimic the epithelium).
Western blot analysis. Cells from different treatment groups were lysed in RIPA buffer (1% NP-40, 1% sodium deoxycholate, 0.1% SDS, 0.15 M NaCl, 0.01 M sodium phosphate, pH 7.2, and 1% Trasylol) containing proteinase inhibitors (1 mM PMSF, 1 μg/ml each of aprotinin, leupeptin, and pepstatin). The concentration of protein in each sample was determined using the BioRad DC Protein Assay and spectrophotometry. Fifty micrograms (μg) of protein from each sample and a BioRad molecular weight standard marker were run on a 10% SDS-PAGE, followed by transfer to nitrocellulose membranes. […]
The subject of data set [3] is NHEK. Description: MTT assay (SDH activity), NHEK. It counts as cell-based, human. The following applies: EGCG at various concentrations or 0.2 mg/ml GTP, 24 h. An excerpt: Succinate dehydrogenase activity assay (MTT assay).
Data set [4] concerns OSC2 cells. The data set is described as follows: Cell invasion/migration assay (Transwell), OSC2 cells. It counts as cell-based, human. To be noted: 50 μM EGCG. As to the method:
Cell invasion/migration assay. The invasion/migration assays were conducted using a Transwell apparatus (Costar) with 6.5 mm diameter wells and membranes of 8 μm pore size. The invasiveness at each time point was tested in DMEM/F12 medium immediately following the cell growth assay, by seeding 10^5 cells in each transwell. Cells migrated across the transwell membrane were counted as per microscopic field.

In data set [5] the test system is OSC-2 cells. The data set is described as follows: Intracellular ROS levels (DFDA assay), OSC-2 cells. It counts as cell-based, human. The protocol:
(§2) Measurement of intracellular ROS levels. The ROS assay measures the accumulation of intracellular ROS levels. The non-fluorescent dye DFDA passively diffuses into cells, where the acetates are cleaved by intracellular esterases. […] Thus, values of the fluorescence in the cell cultures are constantly rising in this assay. Cells (1.5×10^4 cells/well) were incubated with Hallam's physiological saline (HPS) containing DFDA (10 μM) in a 96-well microplate for 30 minutes at 37° C. After the incubation, cells were washed three times with HPS and then incubated with HPS containing EGCG (15-200 μM) or diamide (5 mM) for the indicated time periods. The intracellular ROS levels were measured by using a fluorescence plate reader (BIO-TEK FL600, Bio-Tek Instruments, Inc., Winooski, Vt.), at an excitation wavelength of 485 nm and an emission wavelength of 530 nm.
as §2, with “assay (DFDA assay)” for “assay”, “dye dichlorofluorescein diacetate (DFDA)” for “dye DFDA”, “this assay due to the accumulation of ROS.” for “this assay.”, “EGCG (50-200” for “EGCG (15-200”, “indicated times.” for “indicated time periods.”

The conditions of data set [6]: cited from earlier work.
Data set [7] has as its system caspase 14 and p21. The data set is described as follows: Caspase 14 and p21 expression in OSC2 cells. It counts as cell-based, human. The following applies: EGCG. As to the method: (§3) To identify additional factors those suppress EGCG -induced apoptosis and facilitate cell differentiation in NHEK, exponentially growing NHEK (Cambrex, Baltimore, Md.) were exposed to 100 μM EGCG for 0, 2, 6 and 24 hours, prior to total RNA isolation using the Qiagen RNeasy mini kit (Valencia, Calif.), which was followed by RT-PCR labeling and hybridization with the Human Apoptosis Macroarray membrane (Sigma-Genosys, The Woodlands, Tex.). Total cell lysates also were collected following a variety of EGCG treatments. The protein levels for caspase 14 and p21 were determined by immuno-blotting using antibodies specific for caspase 14 and p21 (Santa Cruz Biotechnology, Santa Cruz, Calif.).
(§4) Normal human epidermal keratinocytes (NHEK; Cambrex), and oral squamous cell carcinoma (OSC2) cells, originally from gingival tissue, were compared. Exponentially growing cells were exposed to 50 or 100 μM EGCG for 0 hours, 2 hours, 6 hours or 24 hours. Cells were harvested for total RNA, which was examined by apoptosis macroarrays (Sigma Genosys), followed by phosphorimagery and data analysis (GeneSpring). Protein production of expressed genes was confirmed by Western blotting of whole cell lysates.

In data set [8] the test system is caspase 3. The data set is described as follows: Caspase 3 activity assay, mammary epithelial cells. It counts as cell-based, human. To be noted: 100 μM EGCG, 24 hours. As to the method:
as §1

Data set [9] deals with normal human primary epidermal keratinocytes. Description: BrdU incorporation assay, exponentially growing keratinocytes. It counts as cell-based. To be noted: increasing EGCG or 0.2 mg/ml GTP. An excerpt: Analysis of DNA synthesis using the BrdU incorporation method. The BrdU cell proliferation kit was purchased from Oncogene Research Products (Boston, Mass.). […] Experiments were repeated three times in triplicate for each experiment.

The subject of data set [10] is p21/WAF1. Description: Apoptosis macroarray, p21/WAF1 mRNA in NHEK. It counts as cell-based, human. The following applies: 100 μM EGCG. As to the method: as §3, §4

For `O=C(O[C@@H]1Cc2c(O)cc(O)cc2O[C@@H]1c1cc(O)c(O)c(O)c1)c1cc(O)c(O)c(O)c1` [EGCG, (−)-epigallocatechin-3-gallate], the “caspase 3 activity” value in data set [1] is recorded as “only exhibited basal levels of caspase 3 activities; also recorded: not significantly affected”. Further, in [2], the p57 levels result is “remained unchanged”. In data set [3], the “SDH activity (MTT assay)” value is recorded as “not significantly affected”. The “cells invading the membrane, of control” value in data set [4] (24 hours) is recorded as “about 30%”; in data set [4] (96 hours), 20%. Further, the “intracellular ROS levels vs controls” value in data set [5] (50 μM EGCG, 60 minute exposure) was “remained comparable to the controls”. Besides, the “intracellular ROS levels vs control” value in data set [5] (50 or 200 μM EGCG, beyond 120 minutes) was “remained significantly higher than the control levels”. Further, the “H2O2 concentration producing ROS equivalent to 200 μM EGCG” value in [5] (first hour) was 50 µM. Besides, in [6] (after two to three cups of green tea), the “EGCG secreted from human saliva” value is ≤ 50 μM and ≤ 22.9 μg/ml. Further, in [6] (humans), the “absorption through the oral mucosa” value is “rapidly absorbed through the oral mucosa”. Further, the “caspase 14 and p21 levels” value in [7] (identical conditions to NHEK) is given as “failed to show increased caspase 14 or decreased p21”. In addition, the “p21 mRNA elevated” value in [7] (within 2 hours) is 3 fold. In addition, the “increase in caspase 3 activity compared to control” value in [8] stood at 3 fold. In addition, the BrdU incorporation result in data set [9] is reported as “slight increase of BrdU incorporation”. The “p21 mRNA level, of untreated control” value was determined as 70.3% in data set [10] (2 hours) and 50.4% in data set [10] (6 hours). The “p21 mRNA level, of control” value in [10] (24 hours) came to 32.7%.
